# Experimental data as given in PubChem BioAssay AID2305 (GlaxoSmithKline (GSK), 2010).
# pIC50: −log10 of the molar value.
# System: P. falciparum 3D7 growth, pLDH absorbance
# Experiment: blood-stage malaria parasite growth potency – strain 3D7, dose response (AID 2305)
row,SMILES,pIC50
1,CN(C)Cc1ccc(-c2ccc3ccnc(N)c3c2)cc1,6.42
2,CNCCCNc1ccnc2cc(Cl)ccc12,7.22
3,COc1ccc(S(=O)(=O)N(CC(=O)NN=C(C)c2cccs2)c2cc(C)cc(C)c2)cc1OC,6.85
4,Cn1ccnc1Sc1ncccc1[N+](=O)[O-],6.01
5,Cc1ccc(-c2noc(=O)n2CC(=O)Nc2ccccc2-c2ccccc2)cc1,6.09
6,CCCOc1ccc(NC(=O)c2cccs2)cc1Cl,6.07
7,COc1ccc2nccc([C@@H](O)CN3CCC(NCc4nc5c(C#N)cccc5[nH]4)CC3)c2c1,6.00
8,CC(C)[C@H](NC(=O)c1ccc(O)c(-c2ccc(Cl)c(Cl)c2)c1)C(=O)NCCN1CCCCC1,6.47
9,Cc1cc2ncn(-c3nccc(NCc4cccnc4)n3)c2cc1C,6.18
10,COc1ccc(C(=O)NCc2ccccc2-c2ccc(C(C)(C)C)cc2)cc1O,7.00
11,O=C(Nc1cccc(-c2ccc(-c3nc4ccc(C(F)(F)F)cc4[nH]3)cc2)c1)c1cccnc1,6.24
12,Cc1cc(Nc2ccc(Oc3ccc(Cl)cc3)cc2)nc(N)n1,6.21
13,CC1(C)CCCN(c2ncc(-c3cccc(CNCc4ccccc4O)c3)cn2)C1,6.05
14,CCn1c(-c2nonc2N)nc2c(-c3cccc(NC(=O)Nc4ccccc4Cl)c3)ncc(OCCCN)c21,6.17
15,Cc1cccc(Nc2nccc(NCC(O)c3ccc(C(F)(F)F)cc3)n2)c1 (centres undefined),6.25
16,COc1ccc2nccc([C@@H](O)CN3CCC(NC(=O)/C=C/c4cccc(-c5ccccc5)c4)CC3)c2c1,6.60
17,O=C(NCCCCCCNCc1ccc(-c2ccccc2)cc1)Nc1ccc(Cl)c(Cl)c1,6.02
18,CC(C)C[C@H](NC(=O)c1cccc(F)c1)C(=O)N[C@H](/C=N/NC(=O)c1ccccc1)CCc1ccccc1,6.15
19,O=C(Nc1cccc(CN2CCCN(Cc3cccnc3)CC2)c1)c1cc2ccccc2s1,5.83
20,CC(=O)c1ccc(Nc2c(C(N)=O)cnc3cc(-c4c(C)noc4C)ccc23)cc1,6.72
21,CCCOc1ccc(-c2nonc2NC(=O)c2ccccc2OC)cc1OCCC,6.07
22,O=c1c2ccc(Sc3ccccn3)cc2n(-c2ccccc2)c2cc(Sc3ccccn3)ccc12,6.70
23,CN1CCCc2ccc(NC(=O)c3cc(-c4ccc(Cl)cc4)cs3)cc2C1,6.10
24,CCC1CN(S(=O)(=O)c2ccc3c(c2)NC(=O)CC(=O)N3)c2cc(Cl)ccc2O1 (centres undefined),6.18
25,Cc1cccn2c(=O)c3cc(C(=O)NC(C)c4ccccc4)c(=N)n(CCN4CCOCC4)c3nc12 (centres undefined),6.09

row,SMILES,pIC50
1,CS(=O)(=O)c1ccc(CCNCc2ccc(-c3ccc(CN(C(=O)C4CCCC4)C4CCN(Cc5ccccc5)CC4)cc3)nc2)cc1,6.08
2,CC1(C)N=C(N)N=C(N)N1OCc1ccc2ccccc2c1CON1C(N)=NC(N)=NC1(C)C,6.18
3,Cc1ccc(Cc2cnc(CN3CCCCC3)c(O)c2)cc1,6.05
4,O=C(Nc1cccc(-c2cccc(-c3nc4ccc(C(F)(F)F)cc4[nH]3)c2)c1)c1cccnc1,6.40
5,OCC1CCN(Cc2ccc(-c3ccc(-c4nc5ccccc5[nH]4)cc3)cc2)CC1,6.05
6,O=C(Nc1ccc(OC2CCN(Cc3ccc(F)cc3)CC2)c(Cl)c1)c1ccsc1,6.14
7,CCN(CC)CCN(Cc1ccc(-c2ccc(C(F)(F)F)cc2)cc1)C(=O)Cn1c(CCc2ccc(F)cc2)nc(=O)c2sccc21,6.17
8,CC(C)c1cccc(OCC2CCN(c3ncc(C(=O)Nc4ccccc4)cc3Cl)CC2)c1,5.97
9,N=C(N)c1ccc(NC(=O)c2cc(Sc3ccc(O)c(C(=O)Nc4ccc(C(=N)N)cc4)c3)ccc2O)cc1,6.92
10,CN1CCC(N(Cc2ccc(-c3cnc(NCc4ccccc4)nc3)cc2)S(=O)(=O)c2ccccc2)CC1,6.11
11,Cc1cccc2[nH]c(-c3ccc(-c4ccc(CN5CCN(CCC#N)CC5)cc4)cc3)nc12,6.07
12,C1=CN(Cc2ccccc2)C=CC1=C1C=Nc2ccccc21,6.12
13,CCCCCc1cc(O)c2c(c1)OC(C)(C)c1ccncc1-2,6.12
14,COc1ccc(OC)c(-c2ccc(=O)n(CC(=O)Nc3cccc4ccccc34)n2)c1,6.05
15,CCNc1cc(C)nc(Nc2ccc(F)cc2)n1,6.10
16,CC[C@H]1CN(CCCn2c3ccccc3c3ccccc32)[C@@H](CC)CN1,5.97
17,COc1ccc(OC)c(NC(=O)CSc2nc(-c3ccccc3Cl)ns2)c1,6.08
18,Cc1cccc2[nH]c(-c3ccc(-c4ccc(NC(=O)Nc5ccc(F)c(F)c5F)cc4)s3)nc12,6.74
19,O=C(Nc1cccc(-c2ccc(-c3nc4ccc(C(F)(F)F)cc4[nH]3)cc2)c1)Nc1ccc(Cl)c(Cl)c1,6.05
20,Cc1ccc(-n2cc(CNCCCn3ccnc3)c(-c3cccc(C)c3)n2)cc1,6.11
21,FC(F)(F)c1ccc2nc(-c3ccc(-c4cccc(CNCc5cnn(-c6ccccc6)n5)c4)s3)[nH]c2c1,6.48
22,COc1cc2c(cc1OC)C(c1ccc(Br)cc1)CN(C)CC2 (centres undefined),6.03
23,CC(C)(CNCc1ccc(C(F)(F)F)cc1)c1nc(-c2ccc(Cl)c(O)c2)c(-c2ccnc(N)n2)[nH]1,6.82
24,CC(Cc1ccc(OCCN2CCN(c3ccccc3)CC2)cc1)NCC(O)c1cccc(Cl)c1F (centres undefined),6.06
